This note sets out measurements from ChEMBL document CHEMBL4622888, “Modified Fusicoccane-Type Diterpenoids from Alternaria brassicicola” (J Nat Prod, 2020).

One data set deals with RAW264.7. Kind of data set: Antiinflammatory activity in mouse RAW264.7 cells assessed as inhibition of LPS-induced NO production measured after 18 hrs by Griess assay. It counts as functional, cell-based. Conditions: RAW264.7, 18 h. For orientation: Griess reagent forms a coloured azo dye with nitrite.
A further data set deals with MDA-MB-231. Kind of data set: Cytotoxicity against human MDA-MB-231 cells after 48 hrs by MTT assay. It counts as functional, cell-based. Conditions: MDA-MB-231, 48 h.
For the next data set, the system named is Hep 3B2. Kind of data set: Cytotoxicity against human Hep3B cells after 48 hrs by MTT assay. It counts as functional, cell-based.
The next data set has as its system HT-29. Put plainly: Cytotoxicity against human HT-29 cells after 48 hrs by MTT assay. Conditions: HT-29, 48 h. It counts as functional, cell-based. (Formazan colour is commonly taken as a measure of viable cells.)
The subject of the next data set is HeLa. Put plainly: Cytotoxicity against human HeLa cells after 48 hrs by MTT assay. It counts as functional, cell-based.
A further data set concerns L02. Kind of data set: Cytotoxicity against human LO2 cells after 48 hrs by MTT assay. Conditions: l02, 48 h. It counts as cell-based.
The subject of the next data set is OVCAR. Kind of data set: Cytotoxicity against human OVCAR cells after 48 hrs by MTT assay. It counts as functional, cell-based.

The IC50 is the concentration at which inhibition is half-maximal. As to `CC(C)C1=C2C[C@H](O)[C@H](C)C3=C(C(=O)CC3)[C@H](O)[C@@]2(C)CC1`, the concentration for half-maximal inhibition (IC50) in the data set with RAW264.7 was > 40 µM.
In the case of `COC[C@@]1(O)CC[C@H]2[C@@H](C)[C@@H](O)CC3=C(C(C)C)CC[C@]3(C)[C@H]3O[C@@]231`, the IC50 in the data set on MDA-MB-231 was 25 to 38.2 µM; with Hep 3B2 it was 25 to 38.2 µM; in the data set on HT-29 it was 25 to 38.2 µM; in the data set with RAW264.7, > 40 µM; with HeLa, 25 to 38.2 µM; in the data set with OVCAR it was 25 to 38.2 µM. The Activity result in the data set on L02 is “Non-Toxic”.
Regarding `COCC1=C2[C@@H](CC1)[C@@H](C)[C@@H](O)CC1=C(C(C)C)C(=O)C[C@]1(C)[C@H]2O`, the IC50 in the data set with RAW264.7 is > 40 µM.
Turning to `CC(C)C1=C2C[C@@H]3O[C@@H]([C@H]4C(=O)CC[C@H]4[C@H]3C)[C@@]2(C)[C@@H](O)C1`, the IC50 was 25 to 38.2 µM in the data set with MDA-MB-231; 25 to 38.2 µM in the data set on Hep 3B2; 25 to 38.2 µM in the data set with HT-29; > 40 µM in the data set with RAW264.7; 25 to 38.2 µM with HeLa; 25 to 38.2 µM with OVCAR. In the data set on L02, the Activity entry is “Non-Toxic”.
Turning to `CC(C)C1=C2C[C@H](O)[C@H](C)[C@@H]3CCC(=O)/C3=C/[C@@]2(C)[C@@H](O)C1`, the IC50 in the data set with MDA-MB-231 was 25 to 38.2 µM; in the data set on Hep 3B2 it was 25 to 38.2 µM; with HT-29, 25 to 38.2 µM; with RAW264.7, > 40 µM; in the data set on HeLa it was 25 to 38.2 µM; with OVCAR, 25 to 38.2 µM. Besides, the Activity entry in the data set on L02 is listed as “Non-Toxic”.
For the compound `COCC1=C2[C@@H](CC1)[C@@H](C)[C@@H](O)CC1=C(C(C)C)CC[C@]1(C)[C@H]2O`, the IC50 with MDA-MB-231 was 25 to 38.2 µM; in the data set on Hep 3B2 it was 25 to 38.2 µM; in the data set on HT-29, 25 to 38.2 µM; with RAW264.7, 24.3 µM; with HeLa, 25 to 38.2 µM; in the data set on OVCAR, 25 to 38.2 µM. Moreover, in the data set with L02, the Activity entry is listed as “Non-Toxic”.
With `COCC1=C2C[C@@]3(C)C(=O)C=C(C(C)C)[C@]34C[C@H](O)[C@H](C)[C@@]2(CC1)O4`, the IC50 with RAW264.7 is > 40 µM.
